Values joined by “and” are separate entries in the source; they are usually repeats but may differ in a detail not shown here. Identical values can stand only once. Like-named read-outs stand apart in the source and are kept apart here.
Key:
[1] = tested on: erythrocytic-stage P. falciparum 3D7 parasites; experiment: In vitro Plasmodium growth assay; format: cell-based, Plasmodium falciparum; conditions: for HillSlope (best-fit value): Plasmodium falciparum 3D7; for LogIC50 (best-fit value): Plasmodium falciparum 3D7, log of nM; for IC50: Plasmodium falciparum 3D7, source data, read-out: IC50 (best-fit value); for EC50: Plasmodium falciparum, 3D7, 72 h
Procedure: Parasites were cultured in human O+ erythrocytes according to standard procedures. To prepare the >80% ring stage parasites, asynchronous cultures of parasites were pretreated with 5% sorbitol, and P. falciparum strain 3D7 at the mid-ring stage (6–10 h post-invasion) was used to test antimalarial effects in 96-well plates. Parasites were incubated in a 96-well plate with compound containing 1% parasitemia and, 2% hematocrit for a total volume of 200 μL. […] A relevant DMSO concentration was used as a negative control, and cultured erythrocytes without Plasmodium served as a positive control. The parasites were allowed to grow for 72 h at 37 °C with 5% CO2, 5% O2, and 90% N2. After 72 h, 100 μL of lysis buffer (0.12 mg·mL^−1 Saponin, 0.12% Triton X-100, 30 mM Tris-HCl pH 8.0, and 7.5 mM EDTA) with 5× SYBR Green I (Invitrogen; supplied in 10000× concentration) was added to each well of the plate. The plates were then incubated for 2 h in the dark prior to reading the fluorescence signal at 485 nm excitation and 535 nm emission. The percentage of inhibition was calculated by (NC-fluorescence) × 100/(NC-PC).

[2] = Solubility noted in the cytotoxicity assay; format: physicochemical; conditions: highest concentration limited to 100 μM in cell medium
Procedure: Cell viability was analyzed by Cell Counting Kit-8 (CCK8, ApexBio) according to the manufacturer’s protocols. Cells were seeded and cultured at a density of 2.5 × 10^3 cells per well in 100 μL medium in 96-well microplates (Corning). Then, the cells were treated with different concentrations of compound (0, 1 μM, 3 μM, 10 μM, 100 μM, 300 μM). […] After treatment for 72 h, 10 μL of CCK-8 reagent was added to each well and then cultured for 4 h. All experiments were performed in pentaplicate. The absorbance was analyzed at 450 nm using a microplate reader (Tecan) using medium without cells as blanks. Data was processed using GraphPad Prism 9.

PfLysRS [3] = molecular target: T1, PfLysRS (Plasmodium falciparum, UniProt Q8IDJ8); experiment: Thermal shift assay; format: binding
T1 construct: PfLysRS (77–583) was constructed in the vector pET20b, with a C-terminal 6×His tag; 6xHis (C); made in house; host or cells: E. coli BL21 (DE3)
Procedure: PfLysRS protein was prepared at 10 μM concentration in a buffer containing 20 mM Tris pH 8.0, 200 mM NaCl, 500 μM L-lysine, and 200 μM Compound. Aliquots (18 µL) were added to a 96-well PCR plate and incubated at ambient temperature for 10 min. SYPRO Orange dye (Sigma) was diluted in the assay buffer containing 20 mM Tris pH 8.0 and 200 mM NaCl to a 40× concentration, and 2 µL of the 40× dye solution was added to the PCR plate to bring the final assay volume to 20 µL. After complete mixing, the final solutions were heated from 25 to 90 °C at a rate of 0.015 °C per sec, and fluorescence signals were monitored by QuantStudio 3 (Applied Biosystems by Thermo Fisher Scientific).

PfLysRS [4] = molecular target: T1, PfLysRS; experiment: ATP hydrolysis assay (Kinase-Glo) on PfLysRS; format: biochemical; conditions: for LogIC50 (best-fit value): log of nM
Procedure: (§1) The ATP hydrolysis assays were based on Kinase-Glo luminescent Kit (Promega). The experiment was carried out in Corning 384-well white flat bottom microplates. The buffer in the reaction contains 25 mM Hepes pH 7.4, 140 mM NaCl, 40 mM MgCl2, 30 mM KCl, 1 mM TCEP, 0.1 mg·mL^−1 BSA, and 0.004% Tween-20. The compounds were diluted to different concentrations with a 5-fold gradient.
(§2) For LysRS assays, DMSO was added into negative control wells and L-lysine was removed in positive control wells. 100 nM LysRS in 2.5 μL Hepes buffer was mixed with compounds and incubated for 10 min. Then 5 μL substrate mixture (2 μM ATP, 10 μM L-lysine and 31 nM pyrophosphatase) was added to start the reaction at 37 °C and incubated for 6 h.
(§3) When the reaction reaches the planned time, 10 μL diluted Kinase-Glo reagent (1/50 diluted with a buffer containing 50 mM Tris pH 7.5 and 5% glycerol) was added and incubated for 15 min. Luminescence was measured on the Magellan plate reader (Tecan) and nonlinear regression was performed with Prism (GraphPad).

HsLysRS = molecular target: T2, HsLysRS (Homo sapiens, UniProt Q15046); experiment: ATP hydrolysis assay (Kinase-Glo) on HsLysRS; format: biochemical; conditions: for LogIC50 (best-fit value): log of nM
T2 construct: HsLysRS (70–581) was constructed in the vector pET20b with a C-terminal 6×His tag; 6xHis (C); made in house; host or cells: E. coli (pET20b; 'purified similarly' to PfLysRS, which was expressed in BL21 (DE3))
Procedure: as §1, §2, §3

ALK = molecular target: T3, ALK (Homo sapiens, UniProt Q9UM73); experiment: ATP hydrolysis assay (Kinase-Glo) on ALK; format: biochemical; conditions: for LogIC50 (best-fit value): log of nM
T3 construct: The plasmid pCDNA3.1_8×His-tev-ALK (kinase domain, 1068–1410) was constructed; 8xHis (N); TEV site (N); made in house; host or cells: Expi293 cells (transient transfection)
Procedure: as §1
For ALK assays, DMSO was added into negative control wells. 100 nM ALK in 2.5 μL Hepes buffer was mixed with compounds and incubated for 10 min. Then 5 μL substrate (2 μM ATP) was added to start the reaction at 37 °C and incubated for 6 h.
as §3

[5] = P. falciparum 3D7, Log(Concentration)/nM 2.290, single repeats
[6] = P. falciparum 3D7, Log(Concentration)/nM 2.592, single repeats
[7] = P. falciparum 3D7, Log(Concentration)/nM 2.893, single repeats
[8] = P. falciparum 3D7, Log(Concentration)/nM 3.193, single repeats
[9] = P. falciparum 3D7, Log(Concentration)/nM 3.496, single repeats
[10] = P. falciparum 3D7, Log(Concentration)/nM 3.796, single repeats
[11] = P. falciparum 3D7, Log(Concentration)/nM 4.097, single repeats
[12] = P. falciparum 3D7, Log(Concentration)/nM 4.398, single repeats
[13] = P. falciparum 3D7, Log(Concentration)/nM 4.699, single repeats
[14] = P. falciparum 3D7, Log(Concentration)/nM 5.000, single repeats
[15] = PfLysRS, source data, read-out: IC50 (best-fit value)
[16] = HsLysRS, Log(Concentration)/nM 2.505, single repeats
[17] = HsLysRS, Log(Concentration)/nM 3.204, single repeats
[18] = HsLysRS, Log(Concentration)/nM 3.903, single repeats
[19] = HsLysRS, Log(Concentration)/nM 4.602, single repeats
[20] = HsLysRS, Log(Concentration)/nM 5.301, single repeats
[21] = HsLysRS, source data, read-out: IC50 (best-fit value)
[22] = ALK, source data, read-out: IC50 (best-fit value)
[23] = +Lysine, sheet Figure 6B, in °C (unit assumed)

T3 sequence (Q9UM73 1068-1410): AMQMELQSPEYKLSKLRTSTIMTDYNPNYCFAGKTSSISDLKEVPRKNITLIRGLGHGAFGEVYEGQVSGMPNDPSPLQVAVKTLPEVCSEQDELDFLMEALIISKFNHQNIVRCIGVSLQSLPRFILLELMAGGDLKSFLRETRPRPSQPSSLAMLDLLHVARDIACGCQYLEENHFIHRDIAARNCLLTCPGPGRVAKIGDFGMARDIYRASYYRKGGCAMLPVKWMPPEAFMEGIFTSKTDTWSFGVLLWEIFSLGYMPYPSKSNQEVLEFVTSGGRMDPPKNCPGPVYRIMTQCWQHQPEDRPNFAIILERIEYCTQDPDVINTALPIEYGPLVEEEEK
T2 sequence (Q15046 70-581): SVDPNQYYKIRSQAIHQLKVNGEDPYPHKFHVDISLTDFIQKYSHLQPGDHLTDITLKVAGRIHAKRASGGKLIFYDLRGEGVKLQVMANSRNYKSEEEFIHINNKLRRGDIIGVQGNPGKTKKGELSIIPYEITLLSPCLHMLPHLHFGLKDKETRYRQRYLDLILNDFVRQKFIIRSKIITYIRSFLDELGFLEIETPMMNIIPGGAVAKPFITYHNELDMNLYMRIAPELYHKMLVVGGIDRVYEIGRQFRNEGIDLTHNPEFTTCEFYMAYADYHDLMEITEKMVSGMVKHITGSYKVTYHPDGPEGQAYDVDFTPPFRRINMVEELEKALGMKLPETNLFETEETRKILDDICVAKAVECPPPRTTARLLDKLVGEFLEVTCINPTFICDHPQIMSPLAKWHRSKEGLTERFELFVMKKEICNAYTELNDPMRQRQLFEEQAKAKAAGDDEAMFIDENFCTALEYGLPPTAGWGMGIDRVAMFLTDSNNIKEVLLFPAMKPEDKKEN
T1 sequence (Q8IDJ8 entry or part of it): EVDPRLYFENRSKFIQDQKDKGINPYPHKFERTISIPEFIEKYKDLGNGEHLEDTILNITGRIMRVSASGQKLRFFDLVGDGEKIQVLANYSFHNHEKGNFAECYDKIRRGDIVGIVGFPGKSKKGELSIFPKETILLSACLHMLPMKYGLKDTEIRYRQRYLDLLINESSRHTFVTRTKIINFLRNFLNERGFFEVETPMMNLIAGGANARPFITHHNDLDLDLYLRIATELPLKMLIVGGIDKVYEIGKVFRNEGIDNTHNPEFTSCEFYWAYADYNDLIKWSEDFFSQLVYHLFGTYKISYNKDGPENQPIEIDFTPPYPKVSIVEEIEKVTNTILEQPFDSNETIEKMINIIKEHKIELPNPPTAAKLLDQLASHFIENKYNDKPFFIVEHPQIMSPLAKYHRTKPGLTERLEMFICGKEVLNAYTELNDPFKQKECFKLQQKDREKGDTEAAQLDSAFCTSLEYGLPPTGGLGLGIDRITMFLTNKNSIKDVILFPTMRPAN

COc1ccccc1Nc1ncnc(Nc2ccccc2S(=O)(=O)C(C)C)n1 [Compound 38]
% Inhibition [1, 5]: 0.5244% and -0.5244% | % Inhibition [1, 6]: 0.1049% and 1.993% | % Inhibition [1, 7]: 5.139% and 2.098% | % Inhibition [1, 8]: 11.12% and 9.229% | % Inhibition [1, 9]: 30.2% and 31.57% | % Inhibition [1, 10]: 64.29% and 65.65% | % Inhibition [1, 11]: 93.45% and 91.87% | % Inhibition [1, 12]: 99.84% and 98.9% | % Inhibition [1, 13]: 100.4% and 99.63% | % Inhibition [1, 14]: 98.16% and 95.65% | HillSlope (best-fit value) [1]: 2.23 | LogIC50 (best-fit value) [1]: 3.663 | IC50 [1]: 4610 nM | EC50 [1]: 4610 ± 120 nM | solubility [2]: poor solubility | Tm of PfLysRS, Average (PfLysRS [3]; +Lysine): 52.704 °C | Tm of PfLysRS, single repeat (PfLysRS [3]; +Lysine): 52.703 °C and 52.673 °C and 52.642 °C and 52.796 °C | Tm of PfLysRS, Average (PfLysRS [3]; -Lysine): 50.586 °C | Tm of PfLysRS, single repeat (PfLysRS [3]; -Lysine): 50.911 °C and 50.756 °C and 50.045 °C and 50.632 °C | ΔTm at 200 µM (PfLysRS [3]; in the absence of L-lysine): 7.6 °C | ΔTm at 200 µM (PfLysRS [3]; in the presence of L-lysine): ~9 °C | HillSlope (best-fit value) (PfLysRS [4]; PfLysRS): 0.6107 | LogIC50 (best-fit value) (PfLysRS [4]; PfLysRS): 2.959 | IC50 (PfLysRS [4]; [15]): 910 nM | IC50 (PfLysRS [4]; read-out: IC50 against PfLysRS): 910 nM | HillSlope (best-fit value) (HsLysRS; HsLysRS): 2.263 | % Inhibition (HsLysRS; [16]): 4.732% and 9.196% and 7.614% | % Inhibition (HsLysRS; [17]): 10.26% and 9.294% and 11.16% | % Inhibition (HsLysRS; [18]): 5.367% and 4.771% and 4.914% | % Inhibition (HsLysRS; [19]): 24.12% and 17.72% and 16.76% | % Inhibition (HsLysRS; [20]): 34.85% and 34.96% and 31.62% | % Inhibition (HsLysRS; HsLysRS, Log(Concentration)/nM 6.000, single repeats): 100.3% and 101% and 91.99% | LogIC50 (best-fit value) (HsLysRS; HsLysRS): 5.476 | IC50 (HsLysRS; [21]): 299 µM | selectivity of PfLysRS over human LysRS (HsLysRS) (HsLysRS; in vitro): 328 times | IC50 (HsLysRS; read-out: IC50 against HsLysRS): 299 ± 34 µM | HillSlope (best-fit value) (ALK; ALK): 1.505 | LogIC50 (best-fit value) (ALK; ALK): 2.726 | IC50 (ALK; [22]): 532 nM | IC50 (ALK; read-out: IC50 against ALK): 532 nM

COc1ccc(OC)c(Nc2ncnc(Nc3ccccc3S(=O)(=O)C(C)C)n2)c1 [Compound 36]
% Inhibition [1, 5]: -1.297% and 4.596% and -3.299% | % Inhibition [1, 6]: 14.49% and 16.27% and 6.82% | % Inhibition [1, 7]: 56.52% and 50.3% and 49.85% | % Inhibition [1, 8]: 89.44% and 83.77% and 86.88% | % Inhibition [1, 9]: 95.44% and 97.78% and 98.22% | % Inhibition [1, 10]: 97.55% and 97.66% and 100.2% | % Inhibition [1, 11]: 99.56% and 100.2% and 100.1% | % Inhibition [1, 12]: 98.55% and 100.8% and 100.2% | % Inhibition [1, 13]: 98.67% and 100.8% and 100.6% | % Inhibition [1, 14]: 90.1% and 96% and 96.11% | HillSlope (best-fit value) [1]: 2.726 | LogIC50 (best-fit value) [1]: 2.867 | IC50 [1]: 736 nM | EC50 [1]: 736 nM | solubility [2]: poor solubility | Tm of PfLysRS, Average (PfLysRS [3]; +Lysine): 54.438 °C | Tm of PfLysRS, single repeat (PfLysRS [3]; +Lysine): 54.731 °C and 54.237 °C and 54.854 °C and 53.929 °C | △Tm of PfLysRS (PfLysRS [3]; +Lysine, sheet Figure 6B): 10.644 | Tm of PfLysRS, Average (PfLysRS [3]; [23]): 55.664 | Tm of PfLysRS, single repeat (PfLysRS [3]; [23]): 55.710 and 55.464 and 56.018 | Tm of PfLysRS, Average (PfLysRS [3]; -Lysine): 53.158 °C | Tm of PfLysRS, single repeat (PfLysRS [3]; -Lysine): 53.374 °C and 52.819 °C and 53.251 °C and 53.189 °C | ΔTm at 200 µM (PfLysRS [3]; in the absence of L-lysine): 11.7 °C | ΔTm at 200 µM (PfLysRS [3]; in the presence of L-lysine): 11.8 °C | HillSlope (best-fit value) (PfLysRS [4]; PfLysRS): 1.442 | LogIC50 (best-fit value) (PfLysRS [4]; PfLysRS): 2.296 | IC50 (PfLysRS [4]; [15]): 198 nM | IC50 (PfLysRS [4]; read-out: IC50 against PfLysRS): 198 nM | HillSlope (best-fit value) (HsLysRS; HsLysRS): 0.3683 | % Inhibition (HsLysRS; HsLysRS, Log(Concentration)/nM 1.806, single repeats): 3.227% and 2.137% and -5.363% | % Inhibition (HsLysRS; [16]): 19.3% and 12.84% and 21.95% | % Inhibition (HsLysRS; [17]): 37.3% and 27.64% and 28.87% | % Inhibition (HsLysRS; [18]): 26.36% and 22.16% and 26.38% | % Inhibition (HsLysRS; [19]): 50.64% and 39% and 42.59% | % Inhibition (HsLysRS; [20]): 74.45% and 64.99% and 63.03% | LogIC50 (best-fit value) (HsLysRS; HsLysRS): 5.258 | IC50 (HsLysRS; [21]): 181 µM | IC50 (HsLysRS; read-out: IC50 against HsLysRS): > 181 µM | HillSlope (best-fit value) (ALK; ALK): 0.6864 | LogIC50 (best-fit value) (ALK; ALK): 4.281 | IC50 (ALK; [22]): 19100 nM | IC50 (ALK; read-out: IC50 against ALK): > 19100 nM

From article PMC11189516, “Structure-guided conversion from an anaplastic lymphoma kinase inhibitor into Plasmodium lysyl-tRNA synthetase selective inhibitors” (Communications Biology, 2024)
